Source: the supplement of paper PMC10307832

Experiments:
Experiment in all cases: relative viability (nuclei count vs DMSO), 5 days (fraction); higher = more cells survive
[1] = compound: CCC1=CN=CN=C1N2CCN(CC2)CC3=NC4=C(N3)C=C(C=C4)C(F)(F)F + Nc1nc2[nH]cc(CCc3ccc(C(=O)N[C@@H](CCC(=O)O)C(=O)O)cc3)c2c(=O)[nH]1 [Pemetrexed] (partner 0.2 µM)
Outline: (§1)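 Dosing by pin tool came one day after lung cancer cell lines were seeded in 1536-well plates, using either one drug or a fixed anchor-drug dose plus five library-drug doses (not always all listed) in √10 steps. After 5 days, nuclei were counted on 4× images. Relative viability is treated-well nuclei count divided by vehicle-well nuclei count, and values are medians of duplicate plates.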

Mirin + OSI-027 = compound: N=C1NC(=O)/C(=C/c2ccc(O)cc2)S1 [Mirin] + COc1cccc2cc(-c3nc([C@H]4CC[C@H](C(=O)O)CC4)n4ncnc(N)c34)[nH]c12 [OSI-027] (partner 0.5 µM)
Outline: as §1

[2] = compound: CCC1=CN=CN=C1N2CCN(CC2)CC3=NC4=C(N3)C=C(C=C4)C(F)(F)F + CCNC(=O)c1noc(-c2cc(C(C)C)c(O)cc2O)c1-c1ccc(CN2CCOCC2)cc1 [Luminespib] (partner 0.01 µM)
Outline: as §1

[3] = compound: CCn1c(-c2nonc2N)nc2cnc(Oc3cccc(NC(=O)c4ccc(OCCN5CCOCC5)cc4)c3)cc21 + COc1cc2c(Oc3ccc(NC(=O)C4(C(=O)Nc5ccc(F)cc5)CC4)cc3F)ccnc2cc1OCCCN1CCOCC1 [Foretinib] (partner 0.25 µM)
Outline: as §1

Cell Line	relative viability ([1]; first compound 0.04 µM)	relative viability ([1]; first compound 0.1265 µM)	relative viability ([1]; first compound 0.4 µM)	relative viability ([1]; first compound 1.265 µM)	relative viability ([1]; first compound 4 µM)	relative viability (Mirin + OSI-027; first compound 0.25 µM)	relative viability (Mirin + OSI-027; first compound 0.7906 µM)	relative viability (Mirin + OSI-027; first compound 2.5 µM)	relative viability (Mirin + OSI-027; first compound 7.906 µM)	relative viability (Mirin + OSI-027; first compound 25 µM)	relative viability ([2]; first compound 0.04 µM)	relative viability ([2]; first compound 0.1265 µM)	relative viability ([2]; first compound 0.4 µM)	relative viability ([2]; first compound 1.265 µM)	relative viability ([2]; first compound 4 µM)	relative viability ([3]; first compound 0.04 µM)	relative viability ([3]; first compound 0.1265 µM)	relative viability ([3]; first compound 0.4 µM)	relative viability ([3]; first compound 1.265 µM)	relative viability ([3]; first compound 4 µM)
SK-MES-1	1.03	1.01	1	0.993	1.03	0.584	0.643	0.684	0.558	0.528	0.779	0.951	0.718	0.735	0.793	1.03	0.645	0.502	0.674	0.638
NCI-H3122	0.21	0.184	0.202	0.203	0.215	0.954	0.809	0.921	0.887	0.902	0.109	0.0823	0.0856	0.0704	0.0698	1.06	0.969	0.935	0.972	0.832
NCI-H2023	0.452	0.25	0.204	0.239	0.232	0.407	0.466	0.401	0.356	0.285	0.7	0.594	0.706	0.72	0.626	0.897	0.988	1.03	0.71	0.451
PC-14	0.135	0.153	0.141	0.13	0.135	0.872	0.742	0.792	–	0.728	0.175	0.207	0.215	0.134	0.133	0.927	0.84	0.761	0.718	0.72
NCI-H1563	0.6	0.619	0.834	0.598	0.887	0.697	0.816	0.744	0.731	0.648	0.539	0.545	0.529	0.478	0.531	0.792	0.786	0.769	0.85	0.666
NCI-H1734	0.449	0.39	0.408	0.422	0.435	0.636	0.574	0.525	0.548	0.488	0.213	0.196	0.173	0.207	0.185	0.97	0.882	0.69	0.599	0.44
NCI-H1650	0.456	0.333	0.401	0.364	0.393	0.577	0.601	0.729	0.643	0.403	0.212	0.207	0.186	–	0.213	1.19	1.32	1.49	1.23	0.969
NCI-H647	0.165	0.173	0.166	0.159	0.135	0.759	0.688	0.572	0.645	0.503	0.228	0.181	0.147	0.0988	0.152	1.27	1.09	0.913	0.668	0.715
NCI-H1944	0.702	0.561	0.61	0.541	0.699	0.445	0.344	0.391	0.375	0.314	0.993	0.677	0.688	0.513	0.573	0.772	0.869	0.978	0.861	0.658
LK-2	0.281	0.259	0.253	0.199	0.302	0.195	0.154	0.198	0.138	0.146	0.204	0.182	0.159	0.195	0.202	1.23	1.19	1.28	1.26	1.28
HCC-15	0.217	0.204	0.224	0.236	0.218	0.81	0.557	0.614	0.585	0.466	0.308	0.299	0.27	0.299	0.406	1.13	0.951	0.998	–	0.906
NCI-H838	0.248	0.239	0.247	0.244	0.225	0.394	0.394	0.414	0.374	0.406	0.271	0.229	0.308	0.342	0.327	0.771	0.7	0.562	0.378	0.371
HOP-62	0.283	0.293	0.326	0.275	0.283	0.836	0.787	0.846	0.663	0.688	1.11	0.991	0.895	0.954	0.816	1.12	1.22	1.02	0.864	0.789
NCI-H322M	0.62	0.606	0.603	0.539	0.629	0.543	0.4	0.643	0.475	0.444	0.988	0.846	0.808	0.805	0.918	1.51	1.24	1.22	0.71	0.8
NCI-H1395	0.862	0.754	0.896	–	0.845	0.616	0.618	0.705	0.61	0.564	0.624	0.775	0.66	0.651	0.619	1.03	0.95	0.975	0.501	0.561
NCI-H650	0.806	0.866	0.99	0.837	0.973	0.478	0.628	0.523	–	0.58	0.889	0.926	0.698	0.739	0.806	1.12	0.774	0.531	0.366	0.438
